{"source": "patent US20180087079A1", "about": "“METHODS OF USING CELL-CYCLE INHIBITORS TO MODULATE ONE OR MORE PROPERTIES OF A CELL CULTURE” (AMGEN INC., priority 2013, published 2018)", "key": {"Colo205": {"test_system": "Colo205", "assay": "[14C]-thymidine incorporation cell proliferation inhibition assay", "type": "cell-based", "conditions": "Homo sapiens, COLO 205, 72 hour incubation", "method": "The cell proliferation inhibition potency of the cell cycle inhibitors was determined by using a [^14C]-thymidine incorporation assay. Exponentially growing cells (Colo205) were seeded in a 96-well Cytostar T plate (GE Healthcare Biosciences) at a density of 5×10^3 cells/well and incubated overnight. Serially diluted compounds and 0.1 μCi of [^14C]-thymidine (GE Healthcare Biosciences) were added to each well on the following day. After 72 hour incubation, isotope incorporation was determined with a β plate counter (Wallac). IC50 values of the compounds in the above assays were determined by non-linear regression analysis using Prism (GraphPad Software)."}, "[1]": {"test_system": "transfected CHO cells expressing recombinant human monoclonal antibody (cell line 1)", "assay": "24-deep well culture, cell line 1: VCD, viability, titer, qP", "type": "cell-based, Chinese hamster", "conditions": "for Titer / VCD / Viability / qP: Cell Line 1", "method": "Transfected CHO cells expressing a recombinant human monoclonal antibody (mAb) are cultured in 24-deep well plates with seeding density at 1×10^7/mL for five days. At certain time periods, samples of the cultures are taken and evaluated for viable cell density (VCD; expressed in 10^6 cells/mL); percent viability (as determined by trypan blue exclusion); titer of recombinant protein (expressed in grams of protein per liter of culture, or g/L, as determined by Protein A affinity HPLC); qP, or specific productivity (expressed in picograms of recombinant protein per cell per day, or pg/c/d), the presence or absence of high molecular weight substances (usually an indicator of protein aggregation; expressed as % of the total protein); and the relative percentage of Mannose 5, a major intermediate glyco-form that attaches to N297 of the mAb. N-linked glycosylation has an impact on the tertiary structure of the antibody and may affect Fc mediated antibody effector functions. The majority of the human Fc glycans are complex biantennary structures with galactose as the prevalent terminal sugar. Immature glyco-forms, such as high-mannose glycol-forms (Man5-9), are of concern due to potential higher plasma clearance rate (as compared to the clearance rate of complex glycan linked mAbs).\nCompounds are further evaluated essentially as described in Example 2 herein. Briefly, transfected CHO cells expressing recombinant human monoclonal antibody (mAb; two different cell lines expressing two different mAb, referred to as cell line 1 and cell line 2) are cultured in 24-deep well plates in the presence or absence of the compounds. At specified time points, samples of the cultures are taken and evaluated for viable cell density (VCD; expressed in 10^6 cells/mL); percent viability (as determined by any method known in the art); titer of recombinant protein (expressed in grams of protein per liter of culture, or g/L, as determined by Protein A affinity HPLC); qP, or specific productivity (expressed in picograms of recombinant protein per cell per day, or pg/c/d). Additional parameters measure include the presence or absence of high molecular weight substances (usually an indicator of protein aggregation; expressed as % of the total protein); and the relative percentage of Mannose 5. For comparison purposes, Compounds A and B, which had been previously tested, were tested again."}, "CDK4/Cyclin D1": {"biological_target": "T1, CDK4/Cyclin D1 (Homo sapiens, UniProt P11802)", "T1 construct": "purchased Cell Signaling Technology", "T1 sequence (P11802 whole entry, species assumed, the tested form may be a part)": "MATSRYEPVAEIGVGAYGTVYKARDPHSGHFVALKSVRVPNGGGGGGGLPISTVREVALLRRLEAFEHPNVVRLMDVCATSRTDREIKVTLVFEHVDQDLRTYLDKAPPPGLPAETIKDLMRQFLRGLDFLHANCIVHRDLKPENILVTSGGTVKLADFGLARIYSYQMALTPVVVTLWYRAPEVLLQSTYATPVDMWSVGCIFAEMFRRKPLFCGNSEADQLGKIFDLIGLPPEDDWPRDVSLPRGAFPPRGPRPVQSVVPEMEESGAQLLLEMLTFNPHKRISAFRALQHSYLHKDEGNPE", "T1 sequence (P24385 whole entry partner, species assumed, the tested form may be a part)": "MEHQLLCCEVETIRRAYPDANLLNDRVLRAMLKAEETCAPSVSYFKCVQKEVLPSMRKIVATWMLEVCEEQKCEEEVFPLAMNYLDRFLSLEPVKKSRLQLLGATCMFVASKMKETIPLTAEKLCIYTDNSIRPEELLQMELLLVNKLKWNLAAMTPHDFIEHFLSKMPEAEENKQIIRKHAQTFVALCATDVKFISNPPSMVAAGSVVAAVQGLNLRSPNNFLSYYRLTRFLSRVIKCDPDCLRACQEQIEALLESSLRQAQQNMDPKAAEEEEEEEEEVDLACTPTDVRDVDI", "assay": "CDK4 filtration kinase assay", "type": "biochemical", "conditions": "CDK4/Cyclin D1, Rb fragment substrate, [33P]-ATP", "method": "The CDK4 inhibitory activity of the cell cycle inhibitors was determined with a filtration kinase assay. The compounds, kinase and substrate diluted in the kinase buffer (20 mM Tris, pH7.4, 50 mM NaCl, 1 mM DTT, 0.1% BSA) were sequentially added to a 96-well Multiscreen HTS filtration plate (Millipore). The final 100 μL reaction mixture in each well contained 0.3 μg of CDK4/Cyclin D1 (Cell Signaling Technology), 1 μg of Rb fragment (aa773-928, Millipore) for the CDK4 assay and 1 μCi of [^33P]-ATP. The mixture was incubated at room temperature for 1 hour. The proteins in the reaction were then precipitated and washed with cold TCA solution using an aspiration/filtration vacuum system. The plates were dried at room temperature, and the retained radioactivity was measured by scintillation counting. IC50 values of the compounds in the above assays were determined by non-linear regression analysis using Prism (GraphPad Software)."}}, "note": "pIC50: −log10 of the molar value.", "data": [{"compound": "CN(C)C1CCN(c2ccc(Nc3ncc4c5ccncc5n(C5CCCC5)c4n3)nn2)CC1", "note": "[Compound C, 9-cyclopentyl-N-(6-(4-(dimethylamino)piperidin-1-yl)pyridazin-3-yl)-9H-pyrido[4′,3′:4,5]pyrrolo[2,3-d]pyrimidin-2-amine]", "values": [{"measurement": "pIC50", "setting": "Colo205", "value": 7.77}, {"measurement": "Titer", "setting": "[1]; 10 microM, D 1", "value": 0.48, "unit": "g/L"}, {"measurement": "VCD", "setting": "[1]; 10 microM, D 1", "value": "10.72 e6/mL"}, {"measurement": "Viability", "setting": "[1]; 10 microM, D 1", "value": 94.37, "unit": "%"}, {"measurement": "qP", "setting": "[1]; 10 microM, D 1", "value": 44.45, "unit": "pg/c/d"}, {"measurement": "Titer", "setting": "[1]; 10 microM, D 2", "value": 0.70, "unit": "g/L"}, {"measurement": "VCD", "setting": "[1]; 10 microM, D 2", "value": "8.77 e6/mL"}, {"measurement": "Viability", "setting": "[1]; 10 microM, D 2", "value": 82.97, "unit": "%"}, {"measurement": "qP", "setting": "[1]; 10 microM, D 2", "value": 79.79, "unit": "pg/c/d"}, {"measurement": "Titer", "setting": "[1]; 10 microM, D 3", "value": 0.94, "unit": "g/L"}, {"measurement": "VCD", "setting": "[1]; 10 microM, D 3", "value": "10.83 e6/mL"}, {"measurement": "Viability", "setting": "[1]; 10 microM, D 3", "value": 84.46, "unit": "%"}, {"measurement": "qP", "setting": "[1]; 10 microM, D 3", "value": 86.83, "unit": "pg/c/d"}, {"measurement": "Titer", "setting": "[1]; 10 microM, D 4", "value": 1.21, "unit": "g/L"}, {"measurement": "VCD", "setting": "[1]; 10 microM, D 4", "value": "12.18 e6/mL"}, {"measurement": "Viability", "setting": "[1]; 10 microM, D 4", "value": 78.70, "unit": "%"}, {"measurement": "qP", "setting": "[1]; 10 microM, D 4", "value": 99.64, "unit": "pg/c/d"}, {"measurement": "Titer", "setting": "[1]; 20 microM, D 1", "value": 0.48, "unit": "g/L"}, {"measurement": "VCD", "setting": "[1]; 20 microM, D 1", "value": "11.00 e6/mL"}, {"measurement": "Viability", "setting": "[1]; 20 microM, D 1", "value": 94.55, "unit": "%"}, {"measurement": "qP", "setting": "[1]; 20 microM, D 1", "value": 43.31, "unit": "pg/c/d"}, {"measurement": "Titer", "setting": "[1]; 20 microM, D 2", "value": 0.67, "unit": "g/L"}, {"measurement": "VCD", "setting": "[1]; 20 microM, D 2", "value": "8.28 e6/mL"}, {"measurement": "Viability", "setting": "[1]; 20 microM, D 2", "value": 80.00, "unit": "%"}, {"measurement": "qP", "setting": "[1]; 20 microM, D 2", "value": 80.51, "unit": "pg/c/d"}, {"measurement": "Titer", "setting": "[1]; 20 microM, D 3", "value": 0.85, "unit": "g/L"}, {"measurement": "VCD", "setting": "[1]; 20 microM, D 3", "value": "9.22 e6/mL"}, {"measurement": "Viability", "setting": "[1]; 20 microM, D 3", "value": 78.87, "unit": "%"}, {"measurement": "qP", "setting": "[1]; 20 microM, D 3", "value": 91.80, "unit": "pg/c/d"}, {"measurement": "Titer", "setting": "[1]; 20 microM, D 4", "value": 1.10, "unit": "g/L"}, {"measurement": "VCD", "setting": "[1]; 20 microM, D 4", "value": "10.18 e6/mL"}, {"measurement": "Viability", "setting": "[1]; 20 microM, D 4", "value": 74.13, "unit": "%"}, {"measurement": "qP", "setting": "[1]; 20 microM, D 4", "value": 108.01, "unit": "pg/c/d"}, {"measurement": "effect on viability", "setting": "[1]; summary of Table 2", "value": "greater (but still modest) decreases in viability"}, {"measurement": "growth arrest", "setting": "[1]; summary of Table 2", "value": "more sustained growth arrest"}, {"measurement": "pIC50", "setting": "CDK4/Cyclin D1", "value": 8.50}]}, {"compound": "Fc1ccc(-n2c3cnccc3c3cnc(Nc4ccc(N5CCNCC5)cn4)nc32)c(F)c1", "note": "[Compound I, 9-(2,4-difluorophenyl)-N-(5-(piperazin-1-yl)pyridin-2-yl)-9H-pyrido[4′,3′:4,5]pyrrolo[2,3-d]pyrimidin-2-amine]", "values": [{"measurement": "Titer", "setting": "[1]; 0.625 microM, D 1", "value": 0.46, "unit": "g/L"}, {"measurement": "VCD", "setting": "[1]; 0.625 microM, D 1", "value": "11.17 e6/mL"}, {"measurement": "Viability", "setting": "[1]; 0.625 microM, D 1", "value": 95.26, "unit": "%"}, {"measurement": "qP", "setting": "[1]; 0.625 microM, D 1", "value": 41.50, "unit": "pg/c/d"}, {"measurement": "Titer", "setting": "[1]; 0.625 microM, D 2", "value": 0.66, "unit": "g/L"}, {"measurement": "VCD", "setting": "[1]; 0.625 microM, D 2", "value": "11.98 e6/mL"}, {"measurement": "Viability", "setting": "[1]; 0.625 microM, D 2", "value": 89.90, "unit": "%"}, {"measurement": "qP", "setting": "[1]; 0.625 microM, D 2", "value": 55.10, "unit": "pg/c/d"}, {"measurement": "Titer", "setting": "[1]; 0.625 microM, D 3", "value": 0.89, "unit": "g/L"}, {"measurement": "VCD", "setting": "[1]; 0.625 microM, D 3", "value": "12.81 e6/mL"}, {"measurement": "Viability", "setting": "[1]; 0.625 microM, D 3", "value": 85.53, "unit": "%"}, {"measurement": "qP", "setting": "[1]; 0.625 microM, D 3", "value": 69.73, "unit": "pg/c/d"}, {"measurement": "Titer", "setting": "[1]; 0.625 microM, D 4", "value": 1.07, "unit": "g/L"}, {"measurement": "VCD", "setting": "[1]; 0.625 microM, D 4", "value": "16.91 e6/mL"}, {"measurement": "Viability", "setting": "[1]; 0.625 microM, D 4", "value": 85.47, "unit": "%"}, {"measurement": "qP", "setting": "[1]; 0.625 microM, D 4", "value": 63.09, "unit": "pg/c/d"}, {"measurement": "Titer", "setting": "[1]; 1.25 microM, D 1", "value": 0.46, "unit": "g/L"}, {"measurement": "VCD", "setting": "[1]; 1.25 microM, D 1", "value": "10.89 e6/mL"}, {"measurement": "Viability", "setting": "[1]; 1.25 microM, D 1", "value": 94.78, "unit": "%"}, {"measurement": "qP", "setting": "[1]; 1.25 microM, D 1", "value": 42.55, "unit": "pg/c/d"}, {"measurement": "Titer", "setting": "[1]; 1.25 microM, D 2", "value": 0.66, "unit": "g/L"}, {"measurement": "VCD", "setting": "[1]; 1.25 microM, D 2", "value": "11.16 e6/mL"}, {"measurement": "Viability", "setting": "[1]; 1.25 microM, D 2", "value": 88.73, "unit": "%"}, {"measurement": "qP", "setting": "[1]; 1.25 microM, D 2", "value": 58.82, "unit": "pg/c/d"}, {"measurement": "Titer", "setting": "[1]; 1.25 microM, D 3", "value": 0.89, "unit": "g/L"}, {"measurement": "VCD", "setting": "[1]; 1.25 microM, D 3", "value": "12.25 e6/mL"}, {"measurement": "Viability", "setting": "[1]; 1.25 microM, D 3", "value": 85.80, "unit": "%"}, {"measurement": "qP", "setting": "[1]; 1.25 microM, D 3", "value": 72.68, "unit": "pg/c/d"}, {"measurement": "Titer", "setting": "[1]; 1.25 microM, D 4", "value": 1.06, "unit": "g/L"}, {"measurement": "VCD", "setting": "[1]; 1.25 microM, D 4", "value": "15.33 e6/mL"}, {"measurement": "Viability", "setting": "[1]; 1.25 microM, D 4", "value": 84.19, "unit": "%"}, {"measurement": "qP", "setting": "[1]; 1.25 microM, D 4", "value": 69.35, "unit": "pg/c/d"}]}]}
